The record followed here is patent US6346389B1, “Method for selectively modulating the interactions between survivin and tubulin” (Yale University, priority 1998, dated 2002).

The subject of one test is polymerized tubulin. As to the kind of experiment: Survivin-microtubule co-sedimentation through sucrose cushion with immunoblotting. In kind it is binding, bovine. Conditions: purified tubulin, taxol. On the procedure: Survivin-microtubule interaction. To determine a potential association of Survivin with tubulin, microtubules were assembled in vitro by taxol treatment using HeLa cell extracts or purified bovine brain tubulin. Subconfluent cultures of HeLa cells were harvested, washed once in phosphate buffered saline and once in MES buffer (0.1 M2-[morpholino]ethane sulphonic acid, 1 mM EGTA, 1 mM MgSO4, pH 6.6). The cell pellet was combined with 2 volumes of MES buffer and disrupted with a Dounce tissue grinder. The lysate was spun for 5 min at 12,000 rpm at 4° C. and the resulting supernatant was centrifuged at 164,000×g for 1 h at 4° C. in a TLA100 rotor (Beckman Instruments). For microtubule assembly, 200 μl aliquots of HeLa cell extracts (4 mg/ml protein) or 1 mg/ml of purified tubulin in MES buffer were supplemented with 1 mM GTP and incubated with 20 μM taxol or 40 μM nocodazole for 30 min at 37° C. Microtubule samples were then mixed with 4 μg of recombinant wild type Survivin or coil-less Survivin for an additional 30 min at 22° C. and loaded on 1 ml of 10% sucrose cushion in MES buffer containing 2 μM taxol. After centrifugation at 30,000×g for 30 min at 30° C. in a TLA100 rotor, equal amounts of the supernatants and pellets were analyzed by Coomassie blue staining and immunoblotting with the anti-Survivin antibody.
For orientation: A western blot detects proteins with antibodies after separation by electrophoresis.

Another test relates to BaF3 cells. As to the kind of experiment: Apoptosis inhibition in stable BaF3 transfectants after IL-3 withdrawal. In kind it is cell-based, mouse. On the procedure:
Apoptosis assay. […] Forty-eight hours after transfection, cells were fixed in 2% paraformaldehyde for 1 h and stained for β-galactosidase expression with 0.5 mg/ml 5-bromo-4-chloro-3-indolyl β-D-galactoside (Amersham), 5 mM potassium ferrocyanide, 5 mM potassium ferricyanide and 2 mM MgCl2 in PBS. β-Galactosidase-expressing cells were scored morphologically on an inverted microscope. In another series of experiments, BaF3 cells stably transfected with wild type or mutated Survivin constructs were washed, seeded in 96-well plates at 5×10^5/ml and cell viability was determined microscopically by trypan blue exclusion at increasing time intervals following IL-3 withdrawal, as described previously (Ambrosini, 1997).

On to “Cys84→Ala: loss-of-function Survivin BIR mutant”, for which, in the test on polymerized tubulin, the “Association with taxol-treated tubulin” value is “quantitatively indistinguishable from that of wild type Survivin”. For the same substance, the “Anti-apoptotic function following IL-3 withdrawal” value with BaF3 cells is on record as “complete loss of anti-apoptotic function”.
